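Protocol summary: plate cells (96-well), add compound at 5 concentrations, incubate 48 h, interpolate endpoints linearly. GI50 = concentration required for 50% inhibition of growth.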 Activity calls are given as the source filed them. No stated cut-off is given here; in the data, active = GI50 up to about 1.1 µM and inactive = higher.
Experiments:
Assay in all cases: DTP human tumour cell line panel, 48 h
DU-145 = tested on: DU-145
K562 = tested on: K562
KM12 = tested on: KM12
M14 = tested on: M14
EKVX = tested on: EKVX
IGROV-1 = tested on: IGROV-1
NCI-H522 = tested on: NCI-H522
A498 = tested on: A498
UACC-62 = tested on: UACC-62
NCI-H460 = tested on: NCI-H460
U-251 = tested on: U-251
HT-29 = tested on: HT-29
PC-3 = tested on: PC-3
SF-268 = tested on: SF-268
OVCAR-8 = tested on: OVCAR-8
UACC-257 = tested on: UACC-257
OVCAR-3 = tested on: OVCAR-3
CAKI-1 = tested on: CAKI-1
SF-539 = tested on: SF-539
SK-MEL-28 = tested on: SK-MEL-28
Malme-3M = tested on: Malme-3M
RXF 393 = tested on: RXF 393
OVCAR-5 = tested on: OVCAR-5
ACHN = tested on: ACHN
SN12C = tested on: SN12C
SR = tested on: SR
HL-60 = tested on: HL-60
HCT-116 = tested on: HCT-116
SNB-75 = tested on: SNB-75
UO-31 = tested on: UO-31
COLO 205 = tested on: COLO 205
LOX IMVI = tested on: LOX IMVI
MDA-MB-435 = tested on: MDA-MB-435
HOP-62 = tested on: HOP-62
SF-295 = tested on: SF-295
Hs-578T = tested on: Hs-578T
RPMI-8226 = tested on: RPMI-8226
SNB-19 = tested on: SNB-19
MOLT-4 = tested on: MOLT-4
MDA-MB-231 = tested on: MDA-MB-231
OVCAR-4 = tested on: OVCAR-4
SW-620 = tested on: SW-620
A549 = tested on: A549
SK-MEL-2 = tested on: SK-MEL-2
NCI/ADR-RES = tested on: NCI/ADR-RES
NCI-H23 = tested on: NCI-H23
SK-OV-3 = tested on: SK-OV-3
MDA-N = tested on: MDA-N
NCI-H226 = tested on: NCI-H226
MCF7 = tested on: MCF7
786-0 = tested on: 786-0
T47D = tested on: T47D
CCRF-CEM = tested on: CCRF-CEM
TK-10 = tested on: TK-10
SK-MEL-5 = tested on: SK-MEL-5
HCC 2998 = tested on: HCC 2998
HOP-92 = tested on: HOP-92
BT-549 = tested on: BT-549
HCT-15 = tested on: HCT-15

Measured: GI50

O=C1Oc2ccccc2C(=O)/C1=C\Nc1nc(-c2ccccc2)cs1
inactive: DU-145 15.3 µM | K562 7.66 µM | KM12 16.7 µM | M14 4.53 µM | EKVX 19.5 µM | IGROV-1 12.3 µM | NCI-H522 2.31 µM | A498 27.7 µM | UACC-62 5.36 µM | NCI-H460 > 100 µM | U-251 11.8 µM | HT-29 5.21 µM | PC-3 16.9 µM | SF-268 8.75 µM | OVCAR-8 8 µM | UACC-257 10.5 µM | OVCAR-3 14.3 µM | CAKI-1 3.76 µM | SF-539 2.94 µM | SK-MEL-28 16.1 µM | Malme-3M 11.6 µM | RXF 393 12.4 µM | OVCAR-5 19 µM | ACHN 11.2 µM | SN12C 7.08 µM | SR 2.01 µM | HL-60 1.45 µM | HCT-116 4.95 µM | SNB-75 5.86 µM | UO-31 7.8 µM | COLO 205 2.6 µM | LOX IMVI 5.2 µM | MDA-MB-435 7.38 µM | HOP-62 23.4 µM | SF-295 25.9 µM | Hs-578T 15.7 µM | RPMI-8226 4.47 µM | SNB-19 19.9 µM | MOLT-4 2.28 µM | MDA-MB-231 18.9 µM | OVCAR-4 58.7 µM | SW-620 3.31 µM | A549 31 µM | SK-MEL-2 14.3 µM | NCI/ADR-RES 10.6 µM | NCI-H23 16.7 µM | SK-OV-3 33.4 µM | MDA-N 4.85 µM | NCI-H226 3.24 µM | MCF7 4.07 µM | 786-0 5.83 µM | T47D 15.9 µM | CCRF-CEM 1.35 µM | TK-10 2.21 µM | SK-MEL-5 2.75 µM | HCC 2998 51.4 µM | HOP-92 11.1 µM

O=C1C(=C2SC(c3ccccc3)(c3ccccc3)c3ccccc32)C(=O)c2ccccc21
> 100 µM: HCT-15
inactive: DU-145 > 100 µM | K562 > 100 µM | KM12 > 100 µM | M14 > 100 µM | EKVX > 100 µM | IGROV-1 > 100 µM | NCI-H522 > 100 µM | A498 > 100 µM | UACC-62 > 100 µM | NCI-H460 > 100 µM | U-251 > 100 µM | HT-29 > 100 µM | PC-3 82.4 µM | SF-268 > 100 µM | OVCAR-8 > 100 µM | UACC-257 72.4 µM | OVCAR-3 > 100 µM | CAKI-1 > 100 µM | SF-539 > 100 µM | SK-MEL-28 > 100 µM | Malme-3M > 100 µM | RXF 393 > 100 µM | OVCAR-5 > 100 µM | ACHN > 100 µM | SN12C > 100 µM | SR 65.2 µM | BT-549 > 100 µM | HCT-116 > 100 µM | SNB-75 > 100 µM | UO-31 > 100 µM | COLO 205 > 100 µM | LOX IMVI > 100 µM | MDA-MB-435 > 100 µM | HOP-62 > 100 µM | SF-295 > 100 µM | Hs-578T > 100 µM | RPMI-8226 > 100 µM | SNB-19 > 100 µM | MOLT-4 > 100 µM | MDA-MB-231 > 100 µM | OVCAR-4 > 100 µM | SW-620 > 100 µM | A549 > 100 µM | NCI/ADR-RES > 100 µM | NCI-H23 > 100 µM | SK-OV-3 > 100 µM | MDA-N > 100 µM | NCI-H226 > 100 µM | MCF7 > 100 µM | 786-0 > 100 µM | CCRF-CEM > 100 µM | TK-10 > 100 µM | SK-MEL-5 > 100 µM | HCC 2998 > 100 µM | HOP-92 > 100 µM
